Experimental data from patent US20230192878A1, “METHODS, THERAPIES AND USES FOR TREATING CANCER” (PFIZER INC., priority 2020, published 2023).

Tests used:
OPM2 = assay: Soluble BCMA (sBCMA) shedding after GSI (ELISA); assay type: cell-based, Human; design: unit not given here; conditions: Table 6 (sBCMA in supernatant, ELISA), 24 hours
MM.1S-luc = assay: BCMAxCD3 bispecific mediated cell killing with human T cells, with or without GSI; assay type: cell-based; conditions: for MM.1S cell viability (% control): 60 hours, with or without 1 μM GSI
Experimental: (§1) CD3^+ T cells from PBMCs (Stem Cell Technologies) were negatively selected using EasySep Human T cell enrichment kit (Stem Cell Technologies). Multiple myeloma cells expressing luciferase (MM.1S-luc, OPM2-luc, H929-luc, Molp8-luc, RPM18226-luc) were treated with 1 μM GSI […]. After 24 hours, cells were seeded with 50,000 CD3^+ pan T cells in a clear 96-well V-bottom plate. Cells were further treated with a range of BCMAxCD3 bispecific antibody concentrations with or without 1 μM GSI. 60 hours after treatment, luciferase activity in treated cells was analyzed using NeoLite reagent kit (Perkin Elmer) and acquired on VictorX multimode plate reader (Perkin Elmer). Cell viability was calculated by dividing luciferase activity of treated cells over luciferase activity of untreated control (no BCMAxCD3 bispecific antibody added).

OPM2-luc = assay: as above; assay type: cell-based; conditions: for OPM2 cell viability (% control): 60 hours, with or without 1 μM GSI
Experimental: as §1

RPMI8226 = assay: as above; assay type: cell-based; conditions: for RPMI8226 cell viability (% control): 60 hours, with or without 1 μM GSI
Experimental: as §1

Raji [1] = assay: Cell surface BCMA expression after GSI, concentration series, lymphoma cells; assay type: cell-based; conditions: 24 hours, ± SD
Experimental: Lymphoma cells (Raji cell line) were seeded in a 96-well U bottom plate at 40,000 cells/well. Cells were incubated for 24 hours in the presence of GSI diluted in RPMI medium (0.1% DMSO). The following concentrations of the GSI were tested: 1000 nM, 500 nM, 100 nM, 50 nM, 25 nM, 10 nM, 5 nM, 2.5 nM, 1 nM, 0.1 nM, 0.01 nM. 24 hours later cells were collected and washed with PBS+2% FBS, followed by staining with ZombieNIR Viability Dye (Biolegend) at 1 in 500 dilution in PBS at room temperature for 20 minutes. Next, cells were washed with PBS+2% FBS and stained with anti-BCMA PE-labelled antibody (Biolegend) diluted in PBS+2% FBS for 30 minutes at 4° C. Cells were acquired on BD Flow Cytometer and analyzed using FlowJo flow cytometry analysis software. Dead cells were removed from the analysis by gating on ZombieNIR negative population. BCMA MFI was plotted against GSI concentration to establish EC50.

Raji [2] = assay: Cell surface BCMA expression after GSI, time course and washout, lymphoma cells; assay type: cell-based
Experimental: Lymphoma cells (Raji) were seeded in a 6-well plate at 800,000 cells/2 ml/well with GSI diluted at 1 μM in RPMI medium (with 0.1% DMSO). Cells were collected to evaluate cell surface BCMA expression at baseline, and then at 3 hours, 6 hours and 24 hours after addition of the GSI. After 24 hours of incubation with the GSI, cells were washed twice in PBS and re-plated in fresh 6-well plates. […] At the indicated time points, samples were stained with a ZombieNIR Viability dye (Biolegend) for 20 minutes at room temperature at 1 in 500 dilution in PBS, washed with PBS+2% FBS and further stained with anti-BCMA PE-labelled antibody diluted in PBS+2% FBS for 30 minutes at 4° C. Samples were acquired on BD Flow Cytometer and analyzed using FlowJo software. Dead cells were removed from the analysis by gating on ZombieNIR negative population. BCMA mean fluorescence intensity (MFI) was plotted as a histogram.

CD8+ T cells = assay: PD-1 induction on CD8+ T cells co-cultured with MM.1S-luc cells; assay type: cell-based, human; conditions: 1 nM BCMAxCD3 bispecific, ± SD
Experimental: CD3+ T cells from PBMCs (Stem Cell Technologies) were negatively selected using EasySep Human T cell enrichment kit (Stem Cell Technologies). 10,000 target Multiple Myeloma MM.1S cells expressing luciferase (MM.1S-luc) were seeded with 50,000 CD3^+ pan T cells in a clear 96-well V-bottom plate. Cells were treated with 1 nM BCMAxCD3 bispecific antibody and PD-1 expression was analyzed at 3, 24, 48 and 72 hours after addition of the BCMAxCD3 bispecific. At the specified time points, cells were collected from the wells, washed with PBS+2% FBS, and stained with ZombieNIR Viability dye (Biolegend) in PBS for 20 minutes at room temperature, followed by staining with antibodies against human CD8 and PD-1 (Biolegend). Samples were analyzed using FlowJo flow cytometry analysis software. Dead cells were removed from analysis by gating on ZombieNIR negative population. Samples were further gated on CD8^+ positive population. Percentage of PD-1+ cells is expressed as PD-1 positive cells within the CD8+ population.

CCC[C@H](N[C@H]1CCc2cc(F)cc(F)c2C1)C(=O)Nc1cn(C(C)(C)CNCC(C)(C)C)cn1 [GSI, nirogacestat]
BCMA (-PE) MFI (OPM2; OPM2, GSI 0.01 nM): 6043.3 | BCMA (-PE) MFI (OPM2; OPM2, GSI 0.1 nM): 8872.2 | BCMA (-PE) MFI (OPM2; OPM2, GSI 1 nM): 8014 | BCMA (-PE) MFI (OPM2; OPM2, GSI 2.5 nM): 7726.5 | BCMA (-PE) MFI (OPM2; OPM2, GSI 5 nM): 7617.3 | BCMA (-PE) MFI (OPM2; OPM2, GSI 10 nM): 6488.6 | BCMA (-PE) MFI (OPM2; OPM2, GSI 25 nM): 4487.9 | BCMA (-PE) MFI (OPM2; OPM2, GSI 50 nM): 3055.7 | BCMA (-PE) MFI (OPM2; OPM2, GSI 100 nM): 1238.6 | BCMA (-PE) MFI (OPM2; OPM2, GSI 500 nM): 23.8 | BCMA (-PE) MFI (OPM2; OPM2, GSI 1000 nM): 0 | Enhancement of BCMAxCD3 bispecific antibody mediated cell killing by GSI (MM.1S-luc; MM.1S, 1 μM GSI): 21 × | Enhancement of BCMAxCD3 bispecific antibody mediated cell killing by GSI (OPM2-luc; OPM2, 1 μM GSI): 21 × | Enhancement of BCMAxCD3 bispecific antibody mediated cell killing by GSI (RPMI8226; RPMI8226, 1 μM GSI): 24 × | BCMA MFI (Raji [1]; GSI 0.01 nM): 142.5 ± 0.8 | BCMA MFI (Raji [1]; GSI 0.10 nM): 147.5 ± 20.6 | BCMA MFI (Raji [1]; GSI 1.00 nM): 398 ± 34 | BCMA MFI (Raji [1]; GSI 2.50 nM): 469 ± 31.2 | BCMA MFI (Raji [1]; GSI 5.00 nM): 484 ± 43.9 | BCMA MFI (Raji [1]; GSI 10.00 nM): 515.5 ± 47.4 | BCMA MFI (Raji [1]; GSI 25.00 nM): 532 ± 42.5 | BCMA MFI (Raji [1]; GSI 50.00 nM): 535 ± 65.1 | BCMA MFI (Raji [1]; GSI 100.00 nM): 498.5 ± 20.6 | BCMA MFI (Raji [1]; GSI 500.00 nM): 568.5 ± 50.3 | BCMA MFI (Raji [1]; GSI 1000.00 nM): 534.5 ± 67.2 | BCMA (-PE) MFI (Raji [2]; GSI 1 μM for 24 h, 3 h post wash): 1619 | BCMA (-PE) MFI (Raji [2]; GSI 1 μM for 24 h, 5 h post wash): 1822 | BCMA (-PE) MFI (Raji [2]; GSI 1 μM for 24 h, 24 h post wash): 795 | BCMA (-PE) MFI (Raji [2]; GSI 1 μM, 3 h after GSI): 699 | BCMA (-PE) MFI (Raji [2]; GSI 1 μM, 6 h after GSI): 735 | BCMA (-PE) MFI (Raji [2]; GSI 1 μM, 24 h after GSI): 1506

PF-06863135: heterodimeric humanized full-length bispecific antibody with one BCMA binding arm and one CD3 binding arm
% PD-1 (of CD8+ T cells) (CD8+ T cells; 3 hours): 12.8 ± 0.6% | % PD-1 (of CD8+ T cells) (CD8+ T cells; 24 hours): 18.9 ± 1.2% | % PD-1 (of CD8+ T cells) (CD8+ T cells; 48 hours): 69.9 ± 3.1% | % PD-1 (of CD8+ T cells) (CD8+ T cells; 72 hours): 69.9 ± 3.1% | MM.1S cell viability (% control) (MM.1S-luc; BCMA × CD3 0.00001 nM): 80.6 ± 3.9 % control | MM.1S cell viability (% control) (MM.1S-luc; BCMA × CD3 0.00005 nM): 79.8 ± 2.9 % control | MM.1S cell viability (% control) (MM.1S-luc; BCMA × CD3 0.00026 nM): 78 ± 0.9 % control | MM.1S cell viability (% control) (MM.1S-luc; BCMA × CD3 0.00128 nM): 87.7 ± 4.4 % control | MM.1S cell viability (% control) (MM.1S-luc; BCMA × CD3 0.0064 nM): 108 ± 4.5 % control | MM.1S cell viability (% control) (MM.1S-luc; BCMA × CD3 0.032 nM): 2.5 ± 0.3 % control | MM.1S cell viability (% control) (MM.1S-luc; BCMA × CD3 0.16 nM): 1.7 ± 0.8 % control | MM.1S cell viability (% control) (MM.1S-luc; BCMA × CD3 0.8 nM): 2.4 ± 0.5 % control | MM.1S cell viability (% control) (MM.1S-luc; BCMA × CD3 4 nM): 1.3 ± 0.8 % control | OPM2 cell viability (% control) (OPM2-luc; BCMAxCD3 0.00064 nM): 83.8 ± 3.4 % control | OPM2 cell viability (% control) (OPM2-luc; BCMAxCD3 0.0032 nM): 84.3 ± 3.1 % control | OPM2 cell viability (% control) (OPM2-luc; BCMAxCD3 0.016 nM): 68.4 ± 2.4 % control | OPM2 cell viability (% control) (OPM2-luc; BCMAxCD3 0.08 nM): 43.6 ± 6.4 % control | OPM2 cell viability (% control) (OPM2-luc; BCMAxCD3 0.4 nM): 3.1 ± 0.8 % control | OPM2 cell viability (% control) (OPM2-luc; BCMAxCD3 2 nM): 2.8 ± 0.8 % control | OPM2 cell viability (% control) (OPM2-luc; BCMAxCD3 10 nM): 2 ± 0.2 % control | OPM2 cell viability (% control) (OPM2-luc; BCMAxCD3 50 nM): 3.3 ± 0.3 % control | RPMI8226 cell viability (% control) (RPMI8226; BCMAxCD3 0.00064 nM): 113.2 ± 10.6 % control | RPMI8226 cell viability (% control) (RPMI8226; BCMAxCD3 0.0032 nM): 130.5 ± 19.5 % control | RPMI8226 cell viability (% control) (RPMI8226; BCMAxCD3 0.016 nM): 113.4 ± 1.3 % control | RPMI8226 cell viability (% control) (RPMI8226; BCMAxCD3 0.08 nM): 54.2 ± 16.9 % control | RPMI8226 cell viability (% control) (RPMI8226; BCMAxCD3 0.4 nM): 28.7 ± 13.6 % control | RPMI8226 cell viability (% control) (RPMI8226; BCMAxCD3 2 nM): 25.7 ± 5.5 % control | RPMI8226 cell viability (% control) (RPMI8226; BCMAxCD3 10 nM): 19.9 ± 1.1 % control | RPMI8226 cell viability (% control) (RPMI8226; BCMAxCD3 50 nM): 19.4 ± 5 % control
